The text below walks through data of patent publication US20140249135A1, “PIM KINASE INHIBITORS AND METHODS OF THEIR USE” (NOVARTIS AG, priority 2007, published 2014).

By IC50 is commonly meant the concentration that gives 50% inhibition.

For assay [1], the target named is Pim2 kinase (Homo sapiens, UniProt Q9P1W9). The experiment in a line: Pim2 ATP depletion assay.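 Further: Luciferase-based luminescent readout of ATP remaining after PIM2 phosphorylates a BAD peptide, final 5 nM enzyme, 4 µM ATP, 10 µM peptide, 2.5% DMSO, run to roughly half ATP consumption.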 The assay is classed as biochemical. Conditions: read-out: IC50 (μM) PIM2.
Pim2 kinase, sequence (Q9P1W9 whole entry): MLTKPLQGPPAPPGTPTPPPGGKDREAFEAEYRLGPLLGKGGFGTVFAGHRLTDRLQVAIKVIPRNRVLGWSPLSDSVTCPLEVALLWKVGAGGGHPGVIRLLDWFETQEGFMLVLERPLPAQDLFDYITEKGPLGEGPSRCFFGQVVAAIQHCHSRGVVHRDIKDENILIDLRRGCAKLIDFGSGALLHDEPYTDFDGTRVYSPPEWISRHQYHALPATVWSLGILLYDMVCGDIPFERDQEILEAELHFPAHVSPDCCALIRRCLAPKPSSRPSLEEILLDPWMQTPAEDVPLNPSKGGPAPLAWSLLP
Assay [2] has as its target Pim1 kinase (Homo sapiens, UniProt P11309). The assay is described as follows: Pim1 ATP depletion assay.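 Further: Luciferase-luciferin luminescence readout of residual ATP after PIM1 transfers phosphate to a peptide substrate, 40 µM ATP added, reaction run to roughly half ATP consumption.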 The assay is classed as biochemical. As to conditions: Pim1 ATP depletion assay; read-out: IC50 (μM) PIM1.
Assay [3] deals with T1, human full length PKCE enzyme (Homo sapiens, UniProt Q02156).
T1 construct: human full length PKCE enzyme purchased from InVitrogen; purchased InVitrogen
T1 sequence (Q02156 1-737): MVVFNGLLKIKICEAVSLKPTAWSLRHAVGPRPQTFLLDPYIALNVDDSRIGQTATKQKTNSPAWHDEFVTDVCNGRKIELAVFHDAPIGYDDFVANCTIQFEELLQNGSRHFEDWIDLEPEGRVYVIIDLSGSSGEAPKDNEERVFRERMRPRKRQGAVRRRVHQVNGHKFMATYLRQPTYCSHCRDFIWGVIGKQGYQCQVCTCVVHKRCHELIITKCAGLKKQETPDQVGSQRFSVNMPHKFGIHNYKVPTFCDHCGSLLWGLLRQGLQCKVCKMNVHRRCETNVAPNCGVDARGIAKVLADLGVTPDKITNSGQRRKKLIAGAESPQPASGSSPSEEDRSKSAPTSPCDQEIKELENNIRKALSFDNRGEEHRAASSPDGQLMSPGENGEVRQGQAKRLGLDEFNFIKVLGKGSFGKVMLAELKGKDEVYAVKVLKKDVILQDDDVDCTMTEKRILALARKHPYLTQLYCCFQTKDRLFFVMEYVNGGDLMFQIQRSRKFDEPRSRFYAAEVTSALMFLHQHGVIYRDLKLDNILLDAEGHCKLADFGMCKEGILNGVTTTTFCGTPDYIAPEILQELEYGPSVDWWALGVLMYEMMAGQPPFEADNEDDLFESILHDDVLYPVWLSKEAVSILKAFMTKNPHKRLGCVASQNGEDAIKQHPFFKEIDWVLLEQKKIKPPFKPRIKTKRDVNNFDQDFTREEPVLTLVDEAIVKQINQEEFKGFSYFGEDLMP
The assay is described as follows: In vitro PKCE assay. Conditions: 10 nM enzyme, 40 uM peptide substrate, 20 uM ATP, KinaseGlo Plus readout; read-out: PKCε IC50. The assay is classed as biochemical. On the technique in general: Kinase-Glo reads ATP consumption through a luciferase reaction.

Assay [4] concerns the target KDR kinase (Homo sapiens, UniProt P35968). The experiment in a line: KDR AlphaScreen assay. As to conditions: KDR IC50 (μM).
The target in assay [5] is Pim3 kinase (Homo sapiens, UniProt Q86V86). The assay is described as follows: Pim3 ATP depletion assay. Format: biochemical. As to conditions: read-out: IC50 (μM) PIM3.

KDR kinase, sequence (P35968 20-1356): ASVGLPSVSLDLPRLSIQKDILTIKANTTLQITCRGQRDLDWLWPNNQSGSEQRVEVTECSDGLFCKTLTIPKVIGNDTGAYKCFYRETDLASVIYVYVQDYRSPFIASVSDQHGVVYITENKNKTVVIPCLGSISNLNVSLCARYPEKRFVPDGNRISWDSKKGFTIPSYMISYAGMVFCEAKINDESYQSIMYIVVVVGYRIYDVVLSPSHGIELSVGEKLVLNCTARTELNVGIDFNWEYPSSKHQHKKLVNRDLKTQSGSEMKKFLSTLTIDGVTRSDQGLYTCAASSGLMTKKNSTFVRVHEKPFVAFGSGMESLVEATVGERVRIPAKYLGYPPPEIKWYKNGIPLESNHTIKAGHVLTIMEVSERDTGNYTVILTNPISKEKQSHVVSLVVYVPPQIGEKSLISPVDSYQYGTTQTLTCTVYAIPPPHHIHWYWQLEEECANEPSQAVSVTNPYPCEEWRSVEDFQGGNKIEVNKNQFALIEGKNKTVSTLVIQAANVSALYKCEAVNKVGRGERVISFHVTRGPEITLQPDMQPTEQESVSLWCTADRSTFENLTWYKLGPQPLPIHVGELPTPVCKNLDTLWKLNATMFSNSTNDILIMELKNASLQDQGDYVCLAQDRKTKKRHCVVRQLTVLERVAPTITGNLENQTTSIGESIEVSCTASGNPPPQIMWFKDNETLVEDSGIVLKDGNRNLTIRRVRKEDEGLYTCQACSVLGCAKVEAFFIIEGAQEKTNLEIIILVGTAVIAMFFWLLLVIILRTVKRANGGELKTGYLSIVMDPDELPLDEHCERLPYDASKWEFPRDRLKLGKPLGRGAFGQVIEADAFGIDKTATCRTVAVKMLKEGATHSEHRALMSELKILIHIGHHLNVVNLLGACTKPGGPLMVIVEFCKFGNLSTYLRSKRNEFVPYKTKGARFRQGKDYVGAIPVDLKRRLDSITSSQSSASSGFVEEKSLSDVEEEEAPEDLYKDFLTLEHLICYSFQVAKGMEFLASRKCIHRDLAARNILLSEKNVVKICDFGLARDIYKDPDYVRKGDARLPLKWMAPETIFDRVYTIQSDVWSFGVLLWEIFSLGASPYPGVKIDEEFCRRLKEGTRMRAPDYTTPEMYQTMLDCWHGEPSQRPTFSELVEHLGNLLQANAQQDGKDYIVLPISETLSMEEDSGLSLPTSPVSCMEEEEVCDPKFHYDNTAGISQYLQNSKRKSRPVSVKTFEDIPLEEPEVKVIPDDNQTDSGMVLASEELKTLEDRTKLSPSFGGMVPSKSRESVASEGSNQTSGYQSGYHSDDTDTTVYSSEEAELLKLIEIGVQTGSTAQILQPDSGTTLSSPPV
Pim1 kinase, sequence (P11309 whole entry): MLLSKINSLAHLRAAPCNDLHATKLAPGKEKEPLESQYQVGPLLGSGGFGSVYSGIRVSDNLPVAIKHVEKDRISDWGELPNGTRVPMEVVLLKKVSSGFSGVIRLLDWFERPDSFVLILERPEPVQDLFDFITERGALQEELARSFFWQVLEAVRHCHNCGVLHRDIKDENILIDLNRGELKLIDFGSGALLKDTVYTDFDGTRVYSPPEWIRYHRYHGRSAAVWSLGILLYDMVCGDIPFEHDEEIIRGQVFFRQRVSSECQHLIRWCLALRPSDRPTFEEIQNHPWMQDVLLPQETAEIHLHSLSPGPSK

Regarding `NCCC(=O)N1CCN(c2cnc(=O)[nH]c2NC(=O)c2nc(Cl)c(N)nc2N)CC1` [Example 238, 3,5-diamino-6-chloro-pyrazine-2-carboxylic acid {5-[4-(3-amino-propionyl)-piperazin-1-yl]-2-oxo-2,3-dihydro-pyrimidin-4-yl}-amide], the IC50 in assay [1] was less than 1 µM; in assay [2], less than 1 µM; in assay [3], more than 25000 nM; in assay [4], less than 1 µM; in assay [5], less than 1 µM.

Regarding `Nc1nccnc1C(=O)Nc1cc(C(=O)C2CC2)ccc1N1CCCC(N)C1` (centres unmarked) [Example 243, 3-amino-pyrazine-2-carboxylic acid [2-(3-amino-piperidin-1-yl)-5-cyclopropanecarbonyl-phenyl]-amide], the 50% inhibitory concentration (IC50) in assay [1] was 10 to 25 µM; in assay [2], 1 to 10 µM; in assay [3] it was 1000 to 10000 nM; in assay [4] it was more than 25 µM; in assay [5] it was 1 to 10 µM.

With `Nc1nccnc1C(=O)Nc1cc(C(=O)C2CC2)ccc1N1CCC(N)CC1` [Example 244, 3-amino-pyrazine-2-carboxylic acid [2-(4-amino-piperidin-1-yl)-5-cyclopropanecarbonyl-phenyl]-amide], the IC50 in assay [1] was in the range of 10 to 25 µM; in assay [2], 1 to 10 µM; in assay [3], 1000 to 10000 nM; in assay [4], 10 to 25 µM; in assay [5], 1 to 10 µM.

For the compound `CC(=O)NC1CCCN(c2ccncc2NC(=O)c2nc(Br)cnc2N)C1` (centres unmarked) [Example 304, N-(4-(3-acetamidopiperidin-1-yl)pyridin-3-yl)-3-amino-6-bromopyrazine-2-carboxamide], the IC50 in assay [1] was more than 25 µM; in assay [2], less than 1 µM; in assay [3] it was 1000 to 10000 nM; in assay [4], less than 1 µM; in assay [5] it was 1 to 10 µM.

With `COc1cncc(-c2cnc(N)c(C(=O)Nc3cnccc3N3CCNCC3)n2)n1` [Example 360, 5-amino-6′-methoxy-[2,2′]bipyrazinyl-6-carboxylic acid (4-piperazin-1-yl-pyridin-3-yl)-amide], the IC50 is more than 25 µM in assay [1]; 1 to 10 µM in assay [2]; 1000 to 10000 nM in assay [3]; less than 1 µM in assay [4]; 1 to 10 µM in assay [5].

`NC(=O)c1cccc(-c2cnc(N)c(C(=O)Nc3cnccc3N3CCNCC3)n2)c1` [Example 361, 3-amino-6-(3-carbamoyl-phenyl)-pyrazine-2-carboxylic acid (4-piperazin-1-yl-pyridin-3-yl)-amide]: the IC50 in assay [1] is less than 1 µM; in assay [2], less than 1 µM; in assay [3] it was less than 1000 nM; in assay [4], less than 1 µM; in assay [5], less than 1 µM.

As for `COc1cncc(-c2cnc(N)c(C(=O)Nc3cnccc3N3CCC(N)CC3)n2)n1` [Example 366, 5-amino-6′-methoxy-[2,2′]bi-pyrazinyl-6-carboxylic acid (4-amino-3,4,5,6-tetrahydro-2H-[1,4′]bipyridinyl-3′-yl)-amide], the IC50 in assay [1] was 1 to 10 µM; in assay [2], less than 1 µM; in assay [3], less than 1000 nM; in assay [4], less than 1 µM; in assay [5] it was less than 1 µM.

Turning to `NC(=O)c1cccc(-c2cnc(N)c(C(=O)Nc3cnccc3N3CCCC(N)C3)n2)c1` (centres unmarked) [Example 369, 3-amino-6-(3-carbamoyl-phenyl)-pyrazine-2-carboxylic acid (3-amino-3,4,5,6-tetra-hydro-2H-[1,4′]bipyridinyl-3′-yl)-amide], the half-inhibitory concentration (IC50) in assay [1] is less than 1 µM; in assay [2], less than 1 µM; in assay [3] it was less than 1000 nM; in assay [4] it was less than 1 µM; in assay [5] it was less than 1 µM.

As to `Nc1ncc(-c2ccccc2F)nc1C(=O)Nc1ccccc1N1CCC(N)CC1` [Example 377, 3-amino-6-(2-fluoro-phenyl)-pyrazine-2-carboxylic acid [2-(4-amino-piperidin-1-yl)-phenyl]-amide], the 50% inhibitory concentration (IC50) in assay [1] is less than 1 µM; in assay [2] it was less than 1 µM; in assay [3] it was less than 1000 nM; in assay [4] it was 1 to 10 µM; in assay [5] it was less than 1 µM.

For the compound `Nc1ncc(-c2ccoc2)nc1C(=O)Nc1ccccc1N1CCC(N)CC1` [Example 379, 3-amino-6-furan-3-yl-pyrazine-2-carboxylic acid [2-(4-amino-piperidin-1-yl)-phenyl]-amide], the IC50 in assay [1] was 1 to 10 µM; in assay [2] it was less than 1 µM; in assay [3] it was less than 1000 nM; in assay [4], 1 to 10 µM; in assay [5], less than 1 µM.

For `NC(=O)c1cccc(-c2cnc(N)c(C(=O)Nc3ccccc3N3CCC(N)CC3)n2)c1` [Example 380, 3-amino-6-(3-carbamoyl-phenyl)-pyrazine-2-carboxylic acid [2-(4-amino-piperidin-1-yl)-phenyl]-amide], the IC50 is 1 to 10 µM in assay [1]; less than 1 µM in assay [2]; less than 1000 nM in assay [3]; less than 1 µM in assay [4]; less than 1 µM in assay [5].

With `COc1ccc(-c2cnc(N)c(C(=O)Nc3ccccc3N3CCC(N)CC3)n2)cc1` [Example 381, 3-amino-6-(4-methoxy-phenyl)-pyrazine-2-carboxylic acid [2-(4-amino-piperidin-1-yl)-phenyl]-amide], the IC50 in assay [1] was less than 1 µM; in assay [2] it was less than 1 µM; in assay [3], less than 1000 nM; in assay [4], 1 to 10 µM; in assay [5], less than 1 µM.

Take `Nc1ncc(-c2ccccc2F)nc1C(=O)Nc1ccccc1N1CCNCC1` [Example 383, 3-amino-6-(2-fluoro-phenyl)-pyrazine-2-carboxylic acid (2-piperazin-1-yl-phenyl)-amide]: the half-maximal inhibitory concentration (IC50) in assay [1] is 1 to 10 µM; in assay [2] it was less than 1 µM; in assay [3], less than 1000 nM; in assay [4] it was 1 to 10 µM; in assay [5], less than 1 µM.

`Nc1ncc(-c2ccoc2)nc1C(=O)Nc1ccccc1N1CCNCC1` [Example 384, 3-amino-6-furan-3-yl-pyrazine-2-carboxylic acid (2-piperazin-1-yl-phenyl)-amide]: the IC50 is 1 to 10 µM in assay [1]; less than 1 µM in assay [2]; less than 1000 nM in assay [3]; 1 to 10 µM in assay [4]; 1 to 10 µM in assay [5].

As to `NC(=O)c1cccc(-c2cnc(N)c(C(=O)Nc3ccccc3N3CCNCC3)n2)c1` [Example 385, 3-amino-6-(3-carbamoyl-phenyl)-pyrazine-2-carboxylic acid (2-piperazin-1-yl-phenyl)-amide], the concentration for half-maximal inhibition (IC50) in assay [1] is 1 to 10 µM; in assay [2] it was less than 1 µM; in assay [3] it was less than 1000 nM; in assay [4], 1 to 10 µM; in assay [5], less than 1 µM.

With `COc1ccc(-c2cnc(N)c(C(=O)Nc3ccccc3N3CCNCC3)n2)cc1` [Example 386, 3-amino-6-(4-methoxy-phenyl)-pyrazine-2-carboxylic acid (2-piperazin-1-yl-phenyl)-amide], the IC50 in assay [1] was 1 to 10 µM; in assay [2], less than 1 µM; in assay [3], less than 1000 nM; in assay [4], 1 to 10 µM; in assay [5] it was less than 1 µM.

As for `Nc1ncc(-c2ccccc2Oc2ccccc2)nc1C(=O)Nc1ccccc1N1CCNCC1` [Example 387, 3-amino-6-(2-phenoxy-phenyl)-pyrazine-2-carboxylic acid (2-piperazin-1-yl-phenyl)-amide], the half-maximal inhibitory concentration (IC50) is more than 25 µM in assay [1]; 1 to 10 µM in assay [2]; 1000 to 10000 nM in assay [3]; 10 to 25 µM in assay [4]; 1 to 10 µM in assay [5].

Take `Cc1cccc(-c2cnc(N)c(C(=O)Nc3ccccc3N3CCNCC3)n2)c1` [Example 388, 3-amino-6-m-tolyl-pyrazine-2-carboxylic acid (2-piper-azin-1-yl-phenyl)-amide]: the half-inhibitory concentration (IC50) in assay [1] is 1 to 10 µM; in assay [2], less than 1 µM; in assay [3], less than 1000 nM; in assay [4], less than 1 µM; in assay [5] it was less than 1 µM.

Take `COc1ncccc1-c1cnc(N)c(C(=O)Nc2ccccc2N2CCNCC2)n1` [Example 390, 3-amino-6-(2-methoxy-pyridin-3-yl)-pyrazine-2-carboxylic acid (2-piperazin-1-yl-phenyl)-amide]: the IC50 in assay [1] was more than 25 µM; in assay [2], less than 1 µM; in assay [3], less than 1000 nM; in assay [4], 1 to 10 µM; in assay [5] it was 1 to 10 µM.
